Converted amounts (≈) assume the structure as drawn. The source made the active and inactive calls. The rule behind the calls is not given here.
Columns and labels:
[1] = tested on: Escherichia coli; test: Antibacterial activity against Escherichia coli KAM32 harboring pSP72 by broth microdilution method; format: functional
[2] = tested on: Escherichia coli; test: Inhibition of ethidium bromide accumulation in Escherichia coli KAM32 harboring pSP72 at 100 uM by fluorescence spectrophotometer; format: functional, organism-based
[3] = tested on: Staphylococcus aureus; test: Inhibition of Staphylococcus aureus LmrS expressed in Escherichia coli KAM32 harboring pSP72 assessed as decrease of ethidium bromide efflux at 0.01 mM after 6 mins by fluorescence spectrophotometer relative to control
[4] = tested on: Escherichia coli; test: Antibacterial activity against Escherichia coli KAM32 harboring Staphylococcus aureus cloned pSP72 lmrS by broth microdilution method; format: functional
[5] = tested on: Escherichia coli; test: Ratio of MIC for Escherichia coli KAM32 harboring cloned pSP72 lmrS to MIC for Escherichia coli KAM32 harboring pSP72; format: functional
[6] = tested on: Escherichia coli; test: Antibacterial activity against Escherichia coli KAM32 harboring Staphylococcus aureus cloned pSP72 lmrS by broth microdilution method in presence of efflux pump inhibitor CCCP; format: functional
[7] = tested on: Staphylococcus aureus; test: Inhibition of Staphylococcus aureus LmrS expressed in Escherichia coli KAM32 harboring pSP72 assessed as decrease of ethidium bromide accumulation at 100 uM by fluorescence spectrophotometer relative to control

Compound | MIC [1] [µg/mL] | inhibition [2] | inhibition [3] [%] | MIC [4] [µg/mL] | MIC ratio [5] | MIC [6] [µg/mL] | inhibition [7] [%]
N#CC(C#N)=NNc1cccc(Cl)c1 [CARBONYL CYANIDE M-CHLOROPHENYLHYDRAZONE] | 8 (≈ 39.1 µM) | inactive | 40 |  |  |  | 
O=C(N[C@H](CO)[C@H](O)c1ccc([N+](=O)[O-])cc1)C(Cl)Cl [CHLORAMPHENICOL] | 0.39 (≈ 1.21 µM) |  |  | 3.13 (≈ 9.69 µM) | 8 |  | 
CC[C@H]1OC(=O)[C@H](C)[C@@H](O[C@H]2C[C@@](C)(OC)[C@@H](O)[C@H](C)O2)[C@H](C)[C@@H](O[C@@H]2O[C@H](C)C[C@H](N(C)C)[C@H]2O)[C@](C)(O)C[C@@H](C)C(=O)[C@H](C)[C@@H](O)[C@]1(C)O [ERYTHROMYCIN] | 1.9 (≈ 2.59 µM) |  |  | 15.6 (≈ 21.3 µM) | 8.2 |  | 
CS(=O)(=O)c1ccc([C@@H](O)[C@@H](CF)NC(=O)C(Cl)Cl)cc1 [FLORFENICOL] | 0.39 (≈ 1.09 µM) |  |  | 3.13 (≈ 8.74 µM) | 8 |  | 
CC(=O)O[C@H]1C[C@@]2(C)[C@@H](C[C@@H](O)[C@H]3[C@@]4(C)CC[C@@H](O)[C@@H](C)[C@@H]4CC[C@@]32C)/C1=C(\CCC=C(C)C)C(=O)O [FUSIDIC ACID] | 31.2 (≈ 60.5 µM) |  |  | 250 (≈ 484 µM) | 8 | 62.5 | 
COc1c(N2CCNC(C)C2)c(F)cc2c(=O)c(C(=O)O)cn(C3CC3)c12 (stereo unspecified) [GATIFLOXACIN] | 0.02 (≈ 0.0533 µM) |  |  | 0.08 (≈ 0.213 µM) | 4.1 |  | 
CC[n+]1c(-c2ccccc2)c2cc(N)ccc2c2ccc(N)cc21.[Br-] [HOMIDIUM BROMIDE] | 7.8 |  |  | 62.5 | 8 |  | 30
NC[C@H]1O[C@H](O[C@H]2[C@H](O)[C@@H](O[C@H]3O[C@H](CO)[C@@H](O)[C@H](N)[C@H]3O)[C@H](N)C[C@@H]2N)[C@H](O)[C@@H](O)[C@@H]1O [KANAMYCIN] | 15.6 (≈ 32.3 µM) |  |  | 125 (≈ 258 µM) | 8 |  | 
CCC[C@@H]1C[C@@H](C(=O)N[C@@H]([C@H]2O[C@H](SC)[C@H](O)[C@@H](O)[C@H]2O)[C@@H](C)O)N(C)C1 [LINCOMYCIN] | 31.2 (≈ 76.9 µM) |  |  | 125 (≈ 307 µM) | 4 |  | 
CC(=O)NC[C@H]1CN(c2ccc(N3CCOCC3)c(F)c2)C(=O)O1 [LINEZOLID] | 1.95 (≈ 5.78 µM) |  |  | 31.2 (≈ 92.6 µM) | 16 |  | 
CN(C)[C@@H]1C(O)=C(C(N)=O)C(=O)[C@@]2(O)C(O)=C3C(=O)c4c(O)cccc4[C@@](C)(O)[C@H]3[C@H](O)[C@@H]12 [OXYTETRACYCLINE] | 0.1 (≈ 0.217 µM) |  |  | 0.39 (≈ 0.847 µM) | 4 |  | 
COC(=O)[C@H]1[C@H]2C[C@@H]3c4[nH]c5cc(OC)ccc5c4CCN3C[C@H]2C[C@@H](OC(=O)c2cc(OC)c(OC)c(OC)c2)[C@@H]1OC [RESERPINE] | 62 (≈ 102 µM) |  |  |  |  |  | 
CO[C@H]1/C=C/O[C@@]2(C)Oc3c(C)c(O)c4c(O)c(c(/C=N/N5CCN(C)CC5)c(O)c4c3C2=O)NC(=O)/C(C)=C\C=C\[C@H](C)[C@H](O)[C@@H](C)[C@@H](O)[C@@H](C)[C@H](OC(C)=O)[C@@H]1C [RIFAMPIN] | 1.9 (≈ 2.31 µM) |  |  | 3.9 (≈ 4.74 µM) | 2.1 |  | 
CCCCCCCCCCCCOS(=O)(=O)[O-].[Na+] [SODIUM LAURYL SULFATE] | 31.2 |  |  | 250 | 8 |  | 
CN[C@@H]1[C@H](O[C@H]2[C@H](O[C@H]3[C@H](O)[C@@H](O)[C@H](N=C(N)N)[C@@H](O)[C@@H]3N=C(N)N)O[C@@H](C)[C@]2(O)C=O)O[C@@H](CO)[C@H](O)[C@H]1O [STREPTOMYCIN] | 0.78 (≈ 1.34 µM) |  |  | 6.25 (≈ 10.7 µM) | 8 |  | 
COc1cc(NS(=O)(=O)c2ccc(N)cc2)nc(OC)n1 [SULFADIMETHOXINE] | 4.88 (≈ 15.7 µM) |  |  | 9.76 (≈ 31.4 µM) | 2 |  | 
[Cl-].c1ccc([P+](c2ccccc2)(c2ccccc2)c2ccccc2)cc1 [TETRAPHENYLPHOSPHONIUM CHLORIDE] | 9.76 |  |  | 156 | 16 |  | 
COc1cc(Cc2cnc(N)nc2N)cc(OC)c1OC [TRIMETHOPRIM] | 0.02 (≈ 0.0689 µM) |  |  | 0.16 (≈ 0.551 µM) | 8.2 |  | 
Cetyltrimethylammonium bromide | 3.9 |  |  | 7.8 |  |  | 

Reference: ChEMBL document CHEMBL1687808, “LmrS is a multidrug efflux pump of the major facilitator superfamily from Staphylococcus aureus” (2010)
